Assay results reported in publication PMC6270994, “The Hydractinia echinata Test-System. III: Structure-Toxicity Relationship Study of Some Azo-, Azo-Anilide, and Diazonium Salt Derivatives” (Molecules, 2014).

tested on: Hydractinia echinata; assay: Hydractinia echinata test system (HeTS): reduction of Cs+-induced metamorphosis of larvae; format: in vivo; settings: Hydractinia echinata, read-out: F(1), F(2),... individual log(1/MRC50) toxicity value (converted)
Method: The average (C) concentrations of these values were calculated too. The MRC50 value calculations (Chicu et al.) result from the graphical representation of the metamorphosis variation, M (%), (Y axis) function of the xenobiotic’s concentration (mol/L) (X axis), where the metamorphosis decreases with the rise of the xenobiotic’s concentration. Thus, the MRC50 value represents the xenobiotic’s concentration (mol/L) necessary for a 50% decrease of metamorphosis, with respect to control.
For each concentration of substance experiments were performed in triplicate and were repeated at least twice.
Colonies of H. echinata (Biologische Anstalt, Helgoland, Germany) were used to obtain eggs and larvae. The culture medium was artificial seawater (980 mosmol, pH 8.2, 18 °C). In laboratory an artificial metamorphosis can be synchronically started by the introduction of Cs^+ ions or by using seawater without Mg^2+ ions; it then lasts only 24 h. Under the action of external stimulus of Cs^+ ions or Cs^+ ions together with the tested compounds, one part of larvae further lives as such and another one is metamorphosized to the polyp form. The evaluation of the influence of the tested substance is very clear this way, the proposed method being based on this aspect.
H. echinata larvae were exposed to seawater containing Cs^+ and simultaneously one of the test substances for 3 h. The percentage of animals that underwent metamorphosis (development into polyps) was determined after 24 h. […] We chose a concentration of inducers which caused about […] to three quarters of the larvae to metamorphose in order to have conditions which are highly sensitive against an inhibitory influence. […] This concentration was termed MRC50 (for Metamorphosis Reduction Concentration) and is similar to the effective EC50 concentration that gives half maximal effective response.

`Nc1ccc(C(=O)O)c(O)c1` [Ac p-AmS, p-aminosalicylic acid] gave an EC50 of 1070 µM.

same assay, conditions: Hydractinia echinata; MRC50 in mol/L = concentration for 50% decrease of metamorphosis vs control; larvae exposed 3 h with Cs+, read after 24 h; read-out: M: experimental Mlog(1/MRC50) (converted)

First: COc1ccc(N=Nc2ccccc2)cc1 [Compound 1, (4-Methoxyphenyl) (phenyl)diazene]
Second: O=C(O)c1ccc(N=Nc2ccccc2)cc1 [Compound 2, 4-(2-Phenyldiazen-1-yl)benzoic acid]
The EC50 of the first is 34-fold lower: 6.31 µM for the first, 214 µM for the second.

Compared with `CN(C)c1ccc(/N=N/c2ccccc2C(=O)O)cc1` [Compound 3, Methyl Red], `Nc1ccc(/N=N/c2ccccc2C(=O)O)cc1C(=O)O` [Compound 5, 2-Amino-5-[(E)-2-(2-carboxyphenyl)diazen-1-yl]benzoic acid] is 7.9-fold lower in EC50: 209 µM for the first, 26.3 µM for the second.

Compared with `CCN(CC)c1ccc(N=Nc2ccc(C(=O)O)cc2)cc1` [Compound 6, 4-{2-[4-(Diethylamino)phenyl]diazen-1-yl}benzoic acid], `O=C(O)c1ccc(N=Nc2ccc(O)cc2)cc1` [Compound 7, 4-[2-(4-Hydroxyphenyl)diazen-1-yl]benzoic acid] is 28-fold higher in EC50: 17 µM for the first, 479 µM for the second.

`O=C(O)c1ccc(/N=N/c2ccc(O)cc2O)cc1` [Compound 8, 4-[(E)-2-(2,4-dihydroxy-phenyl)diazen-1-yl]benzoic acid] and `O=C(O)c1ccc(N=Nc2ccc(O)c(C(=O)O)c2)cc1` [Compound 9, 5-[2-(4-Carboxyphenyl)diazen-1-yl]-2-hydroxybenzoic acid] are within 1.5-fold of each other in EC50: 490 µM for the first, 447 µM for the second.

Compared with `Cc1ccc(N=Nc2ccc([N+](=O)[O-])cc2)c(O)c1` [Compound 20, 5-Methyl-2-[2-(4-nitrophenyl)-diazen-1-yl]phenol], `Nc1c(N=Nc2ccc(C(=O)O)cc2)ccc2ccccc12` [Compound 26, 4-[2-(1-Aminonaphthalen-2-yl)diazen-1-yl]benzoic acid] is 4.2-fold lower in EC50: 77.6 µM for the first, 18.6 µM for the second.

Going from `O=S(=O)(O)c1ccc(O)c(/N=N/c2ccc(O)cc2O)c1` [Compound 21, 3-[(E)-2-(2,4-dihydroxyphenyl)-diazen-1-yl]-4-hydroxybenzene-1-sulfonic acid] to `O=S(=O)(O)c1cc(S(=O)(=O)O)c2c(/N=N/c3ccccc3)c(O)ccc2c1` [Compound 39, Acid Orange 10 (Orange G)], the EC50 rises from 53.7 µM to 457 µM (8.5-fold).

`O=C(O)c1ccc(N=Nc2c(O)ccc3ccccc23)cc1` [Compound 23, 4-[2-(2-Hydroxynaphthalen-1-yl)diazen-1-yl]benzoic acid] and `O=C(O)c1ccc(N=Nc2c(O)c(C(=O)O)cc3ccccc23)cc1` [Compound 25, 4-[2-(4-Carboxyphenyl)diazen-1-yl]-3-hydroxynaphthalene-2-carboxylic acid] are within 1.5-fold of each other in EC50: 245 µM for the first, 355 µM for the second.

same assay, conditions: Hydractinia echinata; parent dye, Table 2; read-out: F(1+2+...)e experimental toxicity log(1/MRC50) (converted)

First: COc1ccc(N=Nc2ccccc2)cc1 [Compound 1, (4-Methoxyphenyl) (phenyl)diazene]
Second: O=C(O)c1ccc(N=Nc2ccccc2)cc1 [Compound 2, 4-(2-Phenyldiazen-1-yl)benzoic acid]
The EC50 of the first is 34-fold lower: 6.31 µM for the first, 214 µM for the second.

`O=C(O)c1ccc(N=Nc2ccc(O)cc2)cc1` [Compound 7, 4-[2-(4-Hydroxyphenyl)diazen-1-yl]benzoic acid] and `O=C(O)c1ccc(/N=N/c2ccc(O)cc2O)cc1` [Compound 8, 4-[(E)-2-(2,4-dihydroxy-phenyl)diazen-1-yl]benzoic acid] are within 1.5-fold of each other in EC50: 479 µM for the first, 490 µM for the second.

Going from `O=C(O)c1ccc(N=Nc2ccc(O)c(C(=O)O)c2)cc1` [Compound 9, 5-[2-(4-Carboxyphenyl)diazen-1-yl]-2-hydroxybenzoic acid] to `Cc1ccc(N=Nc2ccc([N+](=O)[O-])cc2)c(O)c1` [Compound 20, 5-Methyl-2-[2-(4-nitrophenyl)-diazen-1-yl]phenol], the EC50 falls from 447 µM to 77.6 µM (5.8-fold).

same assay, conditions: Hydractinia echinata; product of enzymatic reduction/hydrolysis of the dye; read-out: F(1), F(2),... individual log(1/MRC50) toxicity value (converted)

Compared with `Nc1ccc(O)cc1O` [2,4-DHA, 2,4-dihydroxyaniline], `Nc1ccc(C(=O)O)cc1` [APAB, p-aminobenzoic acid] is 830-fold higher in EC50: 0.55 µM for the first, 457 µM for the second.

same assay, conditions: MRC50 in mol/L = concentration for 50% decrease of metamorphosis vs control; larvae exposed 3 h with Cs+, read after 24 h

`CN(C)c1ccc(N=Nc2ccccc2C(=O)[O-])cc1.[Na+]` [Compound 4, Methyl Red (sodium salt)] and `CN(C)c1ccc(N=Nc2ccc(S(=O)(=O)[O-])cc2)cc1.[Na+]` [Compound 14, Methyl Orange (Orange III)] are within 0.2 log units of each other in “M: experimental Mlog(1/MRC50)” value: 3.79 for the first, 3.74 for the second.

Going from `O=S(=O)([O-])c1cccc(N=Nc2ccc(Nc3ccccc3)cc2)c1.[Na+]` [Compound 12, Metanil Yellow (sodium salt)] to `O=S(=O)([O-])c1ccc(N=Nc2c(O)ccc3ccccc23)cc1.[Na+]` [Compound 28, Acid Orange 7], the “M: experimental Mlog(1/MRC50)” value falls from 4.17 to 3.17.

First: Cc1ccc(N=Nc2c(O)c(S(=O)(=O)[O-])cc3cc(S(=O)(=O)[O-])ccc23)c(C)c1.[Na+].[Na+] [Compound 38, Acid Red 26 (Ponceau Xilidine)]
Second: O=S(=O)([O-])c1ccc2c(N=Nc3ccccc3[As](=O)(O)O)c(O)c(S(=O)(=O)[O-])cc2c1.[Na+].[Na+] [Compound 40, Thorin]
The “M: experimental Mlog(1/MRC50)” value of the first is higher: 4.06 for the first, 3.46 for the second.

`O=S(=O)([O-])c1cc(O)c2c(O)c(N=Nc3ccccc3)c(S(=O)(=O)[O-])cc2c1.[Na+].[Na+]` [Compound 41, Acid Red 29 (Chromotrope 2R)] and `CC(=O)Nc1cc(S(=O)(=O)[O-])cc2cc(S(=O)(=O)[O-])c(N=Nc3ccccc3)c(O)c12.[Na+].[Na+]` [Compound 42, Acid Red 1 (Azophloxin)] are within 0.2 log units of each other in “M: experimental Mlog(1/MRC50)” value: 3.65 for the first, 3.66 for the second.

First: CC(=O)Nc1cc(S(=O)(=O)[O-])cc2cc(S(=O)(=O)[O-])c(N=Nc3ccccc3C)c(O)c12.[Na+].[Na+] [Compound 43, Acid Red 35]
Second: O=S(=O)([O-])c1ccc2c(N=Nc3ccc(S(=O)(=O)[O-])c4ccccc34)c(O)c(S(=O)(=O)[O-])cc2c1.[Na+].[Na+].[Na+] [Compound 57, Acid Red 27 (Amaranth, Food Red 9)]
The “M: experimental Mlog(1/MRC50)” value of the first is higher: 3.63 for the first, 2.33 for the second.

Going from `O=S(=O)([O-])c1ccc(N=Nc2c(O)ccc3ccccc23)c2ccccc12.[Na+]` [Compound 56, Acid Red 88 (Fast Red AV)] to `O=S(=O)([O-])c1ccc(N=Nc2ccc(N=Nc3c(O)ccc4ccccc34)c(S(=O)(=O)[O-])c2)cc1.[Na+].[Na+]` [Compound 68, Acid Red 66 (Biebrischer Scharlach)], the “M: experimental Mlog(1/MRC50)” value rises from 3.31 to 3.95.

Going from `O=[N+]([O-])c1ccc2c(N=Nc3ccc4ccccc4c3O)c(O)cc(S(=O)(=O)[O-])c2c1.[Na+]` [Compound 58, Eriochrom Black T] to `Nc1c(N=Nc2ccc([N+](=O)[O-])cc2)c(S(=O)(=O)[O-])cc2cc(S(=O)(=O)[O-])c(N=Nc3ccccc3)c(O)c12.[Na+].[Na+]` [Compound 74, Acid Black 1 (Amido Black 10B)], the “M: experimental Mlog(1/MRC50)” value rises from 4.13 to 4.33.

First: Cl.Cl.Nc1ccc(N=Nc2cccc(N=Nc3ccc(N)cc3N)c2)c(N)c1 [Compound 60, Bismark Brown Y (Vesuvin)]
Second: Cc1cccc(N=Nc2ccc(N=Nc3c(O)ccc4ccccc34)cc2C)c1 [Compound 64, Solvent Red 25 (Sudan Red B)]
The “M: experimental Mlog(1/MRC50)” value of the first is higher: 3.87 for the first, 3.42 for the second.

Going from `Cc1ccccc1/N=N/c1ccc(/N=N/c2c(O)ccc3ccccc23)c(C)c1` [Compound 63, Sudan IV (Scarlet Red)] to `Oc1ccc2ccccc2c1N=Nc1ccc(N=Nc2ccccc2)cc1` [Compound 65, Solvent Red 23 (Sudan III, Sudan V)], the “M: experimental Mlog(1/MRC50)” value rises from 3.05 to 3.64.

Compared with `O=S(=O)([O-])c1ccc(N=Nc2ccc(N=Nc3c(O)c(S(=O)(=O)[O-])cc4cc(S(=O)(=O)[O-])ccc34)c(S(=O)(=O)[O-])c2)cc1.[Na+].[Na+].[Na+].[Na+]` [Compound 69, Ponceau S], `Nc1c(N=Nc2ccc([N+](=O)[O-])cc2)c(S(=O)(=O)[O-])cc2cc(S(=O)(=O)[O-])c(N=Nc3ccccc3)c(O)c12.[Na+].[Na+]` [Compound 75, Acid Black 1 (Salt)] is higher in “M: experimental Mlog(1/MRC50)” value: 3.97 for the first, 4.41 for the second.

In the case of `CC1(C)Nc2cccc3c(N=Nc4ccc(N=Nc5ccccc5)c5ccccc45)ccc(c23)N1` [Compound 80, Sudan Black B (Solvent Black 3)], the “M: experimental Mlog(1/MRC50)” value is reported as 4.20.

same assay, conditions: even at a concentration of 0.11 mol/L

In the case of `O=C([O-])C1=NN(c2ccc(S(=O)(=O)[O-])cc2)C(=O)C1N=Nc1ccc(S(=O)(=O)[O-])cc1.[Na+].[Na+].[Na+]` (centres unmarked) [Compound 55, Acid Yellow 23 (Tartrazine, Food Yellow 4)], the toxicity is reported as “not toxic at all”.

same assay, conditions: parent dye, Table 2

With `CN(C)c1ccc(N=Nc2ccc(S(=O)(=O)[O-])cc2)cc1.[Na+]` [Compound 14, Methyl Orange (Orange III)] the “F(1+2+...)e experimental toxicity log(1/MRC50)” value was 3.74.

same assay, conditions: product of enzymatic reduction/hydrolysis of the dye

Going from 2-Aminocresol to `Nc1ccc(/C=C/c2ccc(N)cc2S(=O)(=O)O)c(S(=O)(=O)O)c1` [ADASDS, diaminostilbene disulfonic acid], the “F(1), F(2),... individual log(1/MRC50) toxicity value” rises from 3.21 to 3.43.

For `Nc1ccc(S(=O)(=O)O)cc1` [APABS, p-aminobenzenesulfonic acid], the “F(1), F(2),... individual log(1/MRC50) toxicity value” was 2.81.

same assay, conditions: same column as M

In the case of `O=C([O-])C1=NN(c2ccc(S(=O)(=O)[O-])cc2)C(=O)C1N=Nc1ccc(S(=O)(=O)[O-])cc1.[Na+].[Na+].[Na+]` (centres unmarked) [Compound 55, Acid Yellow 23 (Tartrazine, Food Yellow 4)], the “M: experimental toxicity (class word)” value is reported as “NOTE”.
